Experimental data from the NIST ThermoML archive (doi:10.1016/j.jct.2008.12.018).
± gives the expanded uncertainty stated by the source.

Experiment: activity coefficient (dimensionless); of the first substance listed, at infinite dilution; xn = mol fraction of the nth substance listed
Conditions: Liquid, Chromatography, x1 = 0

Row | Structure (SMILES) | activity coefficient (298.15 K) | activity coefficient (308.15 K) | activity coefficient (318.15 K) | activity coefficient (328.15 K) | activity coefficient (338.15 K) | activity coefficient (348.15 K) | activity coefficient (358.15 K) | activity coefficient (368.15 K) | activity coefficient (298.15 K, 101 kPa) | activity coefficient (308.15 K, 101 kPa) | activity coefficient (318.15 K, 101 kPa) | activity coefficient (328.15 K, 101 kPa) | activity coefficient (338.15 K, 101 kPa) | activity coefficient (348.15 K, 101 kPa) | activity coefficient (358.15 K, 101 kPa) | activity coefficient (368.15 K, 101 kPa)
1 | Cc1ccccc1C [1,2-dimethylbenzene] + CCCCn1cc[n+](C)c1.N#C[S-] | 4.58 ± 0.31 | 4.64 ± 0.32 | 4.71 ± 0.32 | 4.69 ± 0.32 | 4.71 ± 0.32 | 4.75 ± 0.32 | 4.78 ± 0.33 | 4.81 ± 0.33 |  |  |  |  |  |  |  | 
2 | Cc1cccc(C)c1 [1,3-dimethylbenzene] + CCCCn1cc[n+](C)c1.N#C[S-] | 5.92 ± 0.4 | 5.91 ± 0.4 | 5.98 ± 0.41 | 5.96 ± 0.41 | 5.96 ± 0.41 | 5.97 ± 0.41 | 5.99 ± 0.41 | 5.96 ± 0.41 |  |  |  |  |  |  |  | 
3 | Cc1ccc(C)cc1 [1,4-dimethylbenzene] + CCCCn1cc[n+](C)c1.N#C[S-] | 5.51 ± 0.38 | 5.54 ± 0.38 | 5.59 ± 0.38 | 5.6 ± 0.38 | 5.63 ± 0.38 | 5.68 ± 0.39 | 5.72 ± 0.39 | 5.75 ± 0.39 |  |  |  |  |  |  |  | 
4 | C=CCCCCC [1-heptene] + CCCCn1cc[n+](C)c1.N#C[S-] | 81.1 ± 5.6 | 73.7 ± 5.1 | 68.5 ± 4.7 | 62.3 ± 4.3 | 58 ± 4 | 54.8 ± 3.8 | 52.4 ± 3.6 |  |  |  |  |  |  |  |  | 
5 | C#CCCCCC [1-heptyne] + CCCCn1cc[n+](C)c1.N#C[S-] | 9.88 ± 0.67 | 9.92 ± 0.68 | 10.1 ± 0.69 | 10.2 ± 0.7 | 10.2 ± 0.7 | 10.3 ± 0.7 | 10.4 ± 0.71 |  |  |  |  |  |  |  |  | 
6 | C#CCCCC [1-hexyne] + CCCCn1cc[n+](C)c1.N#C[S-] | 6.42 ± 0.44 | 6.45 ± 0.44 | 6.59 ± 0.45 | 6.65 ± 0.45 | 6.76 ± 0.46 | 6.87 ± 0.47 | 6.95 ± 0.47 |  |  |  |  |  |  |  |  | 
7 | C#CCCCCCC [1-octyne] + CCCCn1cc[n+](C)c1.N#C[S-] | 15.2 ± 1 | 15.1 ± 1 | 15.4 ± 1.1 | 15.3 ± 1 | 15.3 ± 1 | 15.3 ± 1 | 15.3 ± 1 |  |  |  |  |  |  |  |  | 
8 | C=CCCC [1-pentene] + CCCCn1cc[n+](C)c1.N#C[S-] | 52.3 ± 3.6 | 46.4 ± 3.2 | 41.5 ± 2.8 | 35.4 ± 2.4 | 32.6 ± 2.2 | 30.6 ± 2.1 | 27.6 ± 1.9 |  |  |  |  |  |  |  |  | 
9 | C#CCCC [1-pentyne] + CCCCn1cc[n+](C)c1.N#C[S-] | 4.6 ± 0.31 | 4.68 ± 0.32 | 4.71 ± 0.32 | 4.73 ± 0.32 | 4.79 ± 0.33 | 4.85 ± 0.33 | 4.97 ± 0.34 |  |  |  |  |  |  |  |  | 
10 | COC(C)(C)C [2-methoxy-2-methylpropane] + CCCCn1cc[n+](C)c1.N#C[S-] | 12.8 ± 0.59 | 12.4 ± 0.57 | 11.9 ± 0.55 | 11.4 ± 0.52 | 11.1 ± 0.51 | 10.7 ± 0.49 | 10.6 ± 0.49 |  |  |  |  |  |  |  |  | 
11 | c1ccccc1 [benzene] + CCCCn1cc[n+](C)c1.N#C[S-] | 2.13 ± 0.14 | 2.15 ± 0.15 | 2.17 ± 0.15 | 2.18 ± 0.15 | 2.2 ± 0.15 | 2.22 ± 0.15 | 2.25 ± 0.15 | 2.27 ± 0.15 |  |  |  |  |  |  |  | 
12 | CCCCO [butan-1-ol] + CCCCn1cc[n+](C)c1.N#C[S-] |  | 1.32 ± 0.09 | 1.25 ± 0.08 | 1.21 ± 0.08 | 1.16 ± 0.07 | 1.13 ± 0.07 | 1.1 ± 0.07 | 1.08 ± 0.07 |  |  |  |  |  |  |  | 
13 | C1CCCCCC1 [cycloheptane] + CCCCn1cc[n+](C)c1.N#C[S-] | 56.6 ± 3.9 | 51 ± 3.5 | 46.5 ± 3.2 | 42 ± 2.9 | 38.9 ± 2.7 | 36.1 ± 2.5 | 33.7 ± 2.3 |  |  |  |  |  |  |  |  | 
14 | C1CCCCC1 [cyclohexane] + CCCCn1cc[n+](C)c1.N#C[S-] | 62.3 ± 4.3 | 53.5 ± 3.7 | 47.1 ± 3.2 | 41.1 ± 2.8 | 36.8 ± 2.5 | 33.5 ± 2.3 | 31.1 ± 2.1 |  |  |  |  |  |  |  |  | 
15 | C1CCCCCCC1 [cyclooctane] + CCCCn1cc[n+](C)c1.N#C[S-] | 70 ± 4.8 | 63.1 ± 4.3 | 57.8 ± 4 | 53.2 ± 3.6 | 48.6 ± 3.3 | 45 ± 3.1 | 41.9 ± 2.9 |  |  |  |  |  |  |  |  | 
16 | C1CCCC1 [cyclopentane] + CCCCn1cc[n+](C)c1.N#C[S-] | 46.9 ± 3.2 | 39.7 ± 2.7 | 34.9 ± 2.4 | 30 ± 2.1 | 26.8 ± 1.8 | 24.2 ± 1.7 | 23.1 ± 1.6 |  |  |  |  |  |  |  |  | 
17 | CCCCCCCCCC [decane] + CCCCn1cc[n+](C)c1.N#C[S-] | 628 ± 43 | 581 ± 40 | 533 ± 26 | 470 ± 23 | 426 ± 20 | 386 ± 19 | 351 ± 17 |  |  |  |  |  |  |  |  | 
18 | CCO [ethanol] + CCCCn1cc[n+](C)c1.N#C[S-] | 0.743 ± 0.049 | 0.709 ± 0.047 | 0.69 ± 0.046 | 0.671 ± 0.045 | 0.655 ± 0.045 | 0.643 ± 0.044 | 0.631 ± 0.044 | 0.623 ± 0.043 |  |  |  |  |  |  |  | 
19 | CCc1ccccc1 [ethylbenzene] + CCCCn1cc[n+](C)c1.N#C[S-] | 5.86 ± 0.4 | 5.9 ± 0.4 | 5.93 ± 0.4 | 5.86 ± 0.4 | 5.93 ± 0.4 | 5.83 ± 0.4 | 5.82 ± 0.4 | 5.81 ± 0.4 |  |  |  |  |  |  |  | 
20 | Cc1ccccc1 [toluene] + CCCCn1cc[n+](C)c1.N#C[S-] | 3.4 ± 0.23 | 3.48 ± 0.24 | 3.52 ± 0.24 | 3.53 ± 0.24 | 3.55 ± 0.24 | 3.59 ± 0.24 | 3.62 ± 0.25 | 3.65 ± 0.25 |  |  |  |  |  |  |  | 

Next, values leading:

Row | activity coefficient (298.15 K) | activity coefficient (308.15 K) | activity coefficient (318.15 K) | activity coefficient (328.15 K) | activity coefficient (338.15 K) | activity coefficient (348.15 K) | activity coefficient (358.15 K) | activity coefficient (368.15 K) | activity coefficient (298.15 K, 101 kPa) | activity coefficient (308.15 K, 101 kPa) | activity coefficient (318.15 K, 101 kPa) | activity coefficient (328.15 K, 101 kPa) | activity coefficient (338.15 K, 101 kPa) | activity coefficient (348.15 K, 101 kPa) | activity coefficient (358.15 K, 101 kPa) | activity coefficient (368.15 K, 101 kPa) | Structure (SMILES)
21 | 281 ± 19 | 245 ± 17 | 213 ± 15 | 183 ± 13 | 162 ± 11 | 146 ± 10 | 132 ± 9 |  |  |  |  |  |  |  |  |  | CCCCCCC [heptane] + CCCCn1cc[n+](C)c1.N#C[S-]
22 | 61.6 ± 4.2 | 54.8 ± 3.8 | 50.2 ± 3.4 | 44.9 ± 3.1 | 41.4 ± 2.8 | 38.3 ± 2.6 | 36.4 ± 2.5 |  |  |  |  |  |  |  |  |  | C=CCCCC [hex-1-ene] + CCCCn1cc[n+](C)c1.N#C[S-]
23 | 226 ± 16 | 189 ± 13 | 167 ± 11 | 143 ± 10 | 126 ± 9 | 108 ± 7 | 100 ± 7 |  |  |  |  |  |  |  |  |  | CCCCCC [hexane] + CCCCn1cc[n+](C)c1.N#C[S-]
24 | 0.416 ± 0.035 | 0.396 ± 0.034 | 0.396 ± 0.034 | 0.391 ± 0.034 | 0.387 ± 0.034 | 0.386 ± 0.033 | 0.383 ± 0.033 | 0.382 ± 0.033 |  |  |  |  |  |  |  |  | CO [methanol] + CCCCn1cc[n+](C)c1.N#C[S-]
25 | 459 ± 32 | 414 ± 28 | 376 ± 26 | 332 ± 23 | 298 ± 20 | 272 ± 19 | 252 ± 17 |  |  |  |  |  |  |  |  |  | CCCCCCCCC [nonane] + CCCCn1cc[n+](C)c1.N#C[S-]
26 | 111 ± 8 | 102 ± 7 | 96.3 ± 6.6 | 88.1 ± 6 | 82.5 ± 5.7 | 77.6 ± 5.3 | 73.8 ± 5.1 |  |  |  |  |  |  |  |  |  | C=CCCCCCC [oct-1-ene] + CCCCn1cc[n+](C)c1.N#C[S-]
27 | 350 ± 24 | 311 ± 21 | 279 ± 19 | 243 ± 17 | 218 ± 15 | 198 ± 14 | 180 ± 12 |  |  |  |  |  |  |  |  |  | CCCCCCCC [octane] + CCCCn1cc[n+](C)c1.N#C[S-]
28 |  |  | 1.62 ± 0.11 | 1.54 ± 0.1 | 1.5 ± 0.1 | 1.47 ± 0.1 | 1.45 ± 0.1 | 1.44 ± 0.09 |  |  |  |  |  |  |  |  | CCCCCO [pentan-1-ol] + CCCCn1cc[n+](C)c1.N#C[S-]
29 |  | 0.93 ± 0.06 | 0.9 ± 0.06 | 0.87 ± 0.06 | 0.84 ± 0.05 | 0.83 ± 0.05 | 0.81 ± 0.05 | 0.8 ± 0.05 |  |  |  |  |  |  |  |  | CCCO [propan-1-ol] + CCCCn1cc[n+](C)c1.N#C[S-]
30 |  |  |  |  |  |  |  |  | 2 ± 0.14 | 1.98 ± 0.13 | 1.99 ± 0.14 | 1.99 ± 0.14 | 1.99 ± 0.14 | 1.99 ± 0.14 | 1.99 ± 0.14 | 2.01 ± 0.14 | C1CCOC1 [tetrahydrofuran] + CCCCn1cc[n+](C)c1.N#C[S-]
31 | 1.21 ± 0.078 | 1.24 ± 0.08 | 1.26 ± 0.081 | 1.27 ± 0.082 | 1.29 ± 0.084 | 1.32 ± 0.085 | 1.33 ± 0.086 | 1.36 ± 0.089 |  |  |  |  |  |  |  |  | c1ccsc1 [thiophene] + CCCCn1cc[n+](C)c1.N#C[S-]
